In one data set the test system is female NMRI mice. The data set can be described thus: Anorectic action: cumulated milk consumption after oral administration. In kind it is in vivo. As for the experimental part: The anorectic action was tested on female NMRI mice. After withdrawal of food for 24 hours, the test preparation of the invention was administered via a stomach tube. Kept individually and with free access to drinking water, the animals were offered evaporated milk 30 minutes after the administration of the preparation. The consumption of evaporated milk was determined every half-hour for 7 hours and the general condition of the animals was observed. The measured milk consumption was compared with that of untreated control animals.

Take `OC12N=C(c3ccccc3)SC1(Br)Cc1cc(Cl)ccc12` (stereo not drawn) [Example 1, 8a-Bromo-6-chloro-2-phenyl-8,8a-dihydroindeno[1,2-d]thiazol-3a-ol]: the melting point is 148 °C. Moreover, in the data set with female NMRI mice (oral dose 50 mg/kg via stomach tube, female NMRI mice after 24 h food withdrawal, evaporated milk consumption determined over 7 hours, N=5), the “Number of animals/ cumulated milk consumption of the treated animals N/[ml]” value is given as 5/0.64 ml. In addition, in the data set with female NMRI mice (oral dose 50 mg/kg, female NMRI mice, compared to untreated control animals), the “Reduction of the cumulated milk consumption in % of the control” value is reported as 82%.

For the origin of these results see patent US6403624B1, “8,8A-dihydroindeno[1,2-D] thiazole derivatives which are substituted in the 8A-position; processes for their preparation and their use as medicaments” (Aventis Pharma Deutschland GmbH, priority 2000, dated 2002).
